What all share (type): cell-based
In one experiment the target is T1, opioid κ receptor (Homo sapiens, UniProt P41145).
T1 construct: expressed in transfected cells; host or cells: CHO cells
Kind of experiment: Opioid receptor functional test (Lance Ultra cAMP Kit), κ receptor agonist activity. The note with it: for Emax at 10 µM: maximum concentration (10 μM), reaction did not reach the maximum, EC50 N.C., relative to U-69593. Here is the method: (§1) Functional activities of the compounds of the present invention for the μ, […], and κ opioid receptors were investigated.
(§2) The test was performed according to a prescribed method by using Lance Ultra cAMP Kit (Perkin-Elmer). The agonist activities were evaluated as follows. The CHO cells expressing each opioid receptor (μ, δ, or κ) and a test compound were reacted in an assay buffer (1×HBSS, […], pH 7.4, […] IBMX (isobutylmethylxanthine), 7.5% BSA) for 30 minutes in the presence of 10 μM forskolin. Then, the cAMP detection reagent included in the kit was added, and after 1 hour, time-resolved fluorescence measurements were performed by using the EnVision plate reader (Perkin-Elmer). A dose-responce curve of the test compound was obtained from fluorescence values measured at 665 nm, and EC50 value and Emax value were calculated. The Emax value was calculated as a ratio of the maximum responce of the test compound with respect to the maximum responce of each control agent (SNC80 for δ, DAMGO for μ, U-69593 for κ) taken as 100%.
(§3) 1): Hydrochloride was used.

For the next experiment, the target named is T2, opioid μ receptor (Homo sapiens, UniProt P35372).
T2 construct: expressed in transfected cells; host or cells: CHO cells
T2 sequence (P35372 whole entry): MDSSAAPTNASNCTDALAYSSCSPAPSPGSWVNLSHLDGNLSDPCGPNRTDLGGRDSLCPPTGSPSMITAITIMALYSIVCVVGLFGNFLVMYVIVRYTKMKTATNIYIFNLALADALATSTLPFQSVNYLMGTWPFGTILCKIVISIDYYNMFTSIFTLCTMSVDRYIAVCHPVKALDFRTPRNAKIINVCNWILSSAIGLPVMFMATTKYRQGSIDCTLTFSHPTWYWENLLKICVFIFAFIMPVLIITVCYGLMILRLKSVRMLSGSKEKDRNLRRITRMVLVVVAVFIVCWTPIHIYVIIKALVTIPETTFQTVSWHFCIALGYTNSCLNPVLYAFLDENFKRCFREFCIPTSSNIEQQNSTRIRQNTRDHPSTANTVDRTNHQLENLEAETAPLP
The experiment can be described thus: Opioid receptor functional test (Lance Ultra cAMP Kit), μ receptor agonist activity. The note with it: for EC50: CHO cells expressing μ opioid receptor, 10 μM forskolin, cAMP; for Emax at 10 µM: maximum concentration (10 μM), reaction did not reach the maximum, EC50 N.C., relative to DAMGO. Here is the method: as §1, §2, §3

In another experiment the target is T3, opioid δ receptor (Homo sapiens, UniProt P41143).
T3 construct: expressed in transfected cells; host or cells: CHO cells
T3 sequence (P41143 whole entry): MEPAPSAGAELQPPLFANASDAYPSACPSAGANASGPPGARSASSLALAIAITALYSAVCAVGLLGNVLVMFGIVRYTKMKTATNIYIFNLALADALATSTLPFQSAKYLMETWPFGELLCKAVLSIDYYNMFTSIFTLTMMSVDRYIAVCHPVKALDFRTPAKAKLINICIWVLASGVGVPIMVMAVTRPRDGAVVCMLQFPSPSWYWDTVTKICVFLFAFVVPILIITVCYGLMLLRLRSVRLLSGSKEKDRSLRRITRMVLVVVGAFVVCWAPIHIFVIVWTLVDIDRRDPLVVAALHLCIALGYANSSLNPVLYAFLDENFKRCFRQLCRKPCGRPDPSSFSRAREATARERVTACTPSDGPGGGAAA
The experiment can be described thus: Opioid receptor functional test (Lance Ultra cAMP Kit), δ receptor agonist activity. The conditions noted are these: for Emax: read-out: δ Receptor Emax. On the procedure: as §1, §2, §3

The mark [1] stands for this setting: maximum response relative to DAMGO taken as 100%, hydrochloride was used, read-out: μ Receptor Emax.
[2] abbreviates: CHO cells expressing δ opioid receptor, 10 μM forskolin, cAMP, hydrochloride was used, read-out: δ Receptor EC50 value.
The mark [3] stands for this setting: maximum response relative to SNC80 taken as 100%, hydrochloride was used.
Where [4] appears, read: CHO cells expressing κ opioid receptor, 10 μM forskolin, cAMP, hydrochloride was used, read-out: κ Receptor EC50 value.
Setting [5] is: maximum response relative to U-69593 taken as 100%, hydrochloride was used, read-out: κ Receptor Emax.
[6] abbreviates: hydrochloride was used, read-out: μ Receptor responce rate at the maximum concentration (reference value).
Where [7] appears, read: hydrochloride was used, read-out: κ Receptor responce rate at the maximum concentration (reference value).
Setting [8] is: read-out: μ Receptor responce rate at the maximum concentration (reference value).

Where two headings read alike, the source gives them in different places.

T1 sequence (P41145 whole entry): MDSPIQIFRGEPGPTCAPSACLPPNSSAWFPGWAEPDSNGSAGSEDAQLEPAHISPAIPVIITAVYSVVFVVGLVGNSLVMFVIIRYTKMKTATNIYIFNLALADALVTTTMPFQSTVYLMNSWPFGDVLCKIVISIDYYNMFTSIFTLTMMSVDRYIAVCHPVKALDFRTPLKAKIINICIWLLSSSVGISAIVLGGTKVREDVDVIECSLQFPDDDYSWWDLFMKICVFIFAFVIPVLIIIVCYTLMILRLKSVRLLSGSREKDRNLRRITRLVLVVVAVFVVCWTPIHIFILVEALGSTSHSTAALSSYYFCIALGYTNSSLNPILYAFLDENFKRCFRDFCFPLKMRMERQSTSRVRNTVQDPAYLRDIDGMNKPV

In general, EC50 refers to the concentration that produces a half-maximal response. Regarding `CN1CC[C@@]23c4cc(O)ccc4C[C@@H]1[C@]21CC[C@@H]2[C@H]3[C@@H](CN2C(=O)c2ccccc2)O1` [Compound 12, [(1S,3aR,5aS,6R,11bR,11cS)-10-hydroxy-14-methyl-1,2,3a,4,5,6,7,11c-octahydro-3H-6,11b-(iminoethano)-1,5a-epoxynaphtho[1,2-e]indol-3-yl](phenyl)methanone], the EC50 at opioid κ receptor was over 10 nM; at opioid μ receptor (hydrochloride was used), over 1 nM; at opioid δ receptor (setting [2]), under 1 nM. Moreover, the figures for the Emax on opioid κ receptor (read-out: κ Receptor Emax), at opioid μ receptor (setting [1]) and on opioid δ receptor (setting [3]) were 96%, 103% and 94%, respectively.
As to `COc1cc2c(cc1[N+](=O)[O-])C[C@H]1N(CC3CC3)CC[C@@]23C2C4CC[C@@]13C[C@@H]2CN4c1nc(C)cc(C)n1` (stereo partly drawn) [Compound 311, (1S,5aS,6R,11bR)-14-(cyclopropylmethyl)-3-(4,6-dimethylpyrimidin-2-yl)-10-methoxy-9-nitro-2,3,3a,4,5,6,7,11c-octahydro-1H-6,11b-(iminoethano)-1,5a-methanonaphtho[1,2-e]indole], the EC50 is over 500 nM at opioid κ receptor (setting [4]), over 100 nM at opioid μ receptor (hydrochloride was used) and under 50 nM at opioid δ receptor (setting [2]). Moreover, the Emax at opioid κ receptor (setting [5]) stood at 16%; at opioid μ receptor (setting [1]), 18%; at opioid δ receptor (setting [3]), 82%.
Regarding `Oc1ccc2c(c1)C13CCN(CC4CC4)C(C2)C12CCC1C3[C@@H](CN1c1nccs1)C2` (some centres unmarked) [Compound 241], the results for the EC50 at opioid κ receptor (setting [4]) and at opioid δ receptor (setting [2]) were over 1 nM and under 10 nM, respectively. For the same compound, the Emax at opioid κ receptor (setting [5]) is 33%; at opioid δ receptor (setting [3]), 81%. Besides, the Emax at 10 µM on opioid μ receptor (setting [6]) is 11%.
Turning to `Nc1ccc2c(c1)[C@]13CCN(CC4CC4)[C@H](C2)[C@]12CCC1C3[C@@H](CN1C(=O)c1ccccc1)O2` (stereo partly drawn) [Compound 308, [(1S,5aS,6R,11bR)-10-Amino-14-(cyclopropylmethyl)-4,5,6,7-tetrahydro-1H-6,11b-(iminoethano)-1,5a-epoxynaphtho[1,2-e]indol-3(2H,3aH,11cH)-yl](phenyl)methanone], the EC50 at opioid κ receptor (setting [4]) is over 100 nM; at opioid δ receptor (setting [2]) it was under 10 nM. Further, the Emax worked out at 38% at opioid κ receptor (setting [5]) and 94% on opioid δ receptor (setting [3]). Moreover, the Emax at 10 µM on opioid μ receptor (setting [6]) is 2.5%.
Taken in the same sequence, the figures for `Oc1ccc2c(c1)[C@]13CCN(CC4CC4)[C@H](C2)[C@]12CC[C@@H]1[C@H]3[C@@H](CN1c1ccccc1)O2` [Compound 31, (1S,3aR,5aS,6R,11bR,11cS)-14-(cyclopropylmethyl)-3-phenyl-2,3,3a,4,5,6,7,11c-octahydro-1H-6,11b-(iminoethano)-1,5a-epoxynaphtho[1,2-e]indol-10-ol] were over 1 nM, under 10 nM, 23%, 46% and 14%.
`O=C(c1ccco1)N1C[C@H]2O[C@@]34CC[C@@H]1[C@@H]2[C@@]31CCN(CC2CC2)[C@@H]4Cc2ccc(O)cc21` [Compound 50, [(1S,3aR,5aS,6R,11bR,11cS)-14-cyclopropylmethyl-10-hydroxy-1,2,3a,4,5,6,7,11c-octahydro-3H-6,11b-(iminoethano)-1,5a-epoxynaphtho[1,2-e]indol-3-yl](2-furyl)methanone]: the Emax at 10 µM on opioid κ receptor (setting [7]) turned out to be 12%; at opioid μ receptor (setting [6]) it was 5.4%. On opioid δ receptor (setting [2]), the EC50 is under 1 nM. The Emax at opioid δ receptor (setting [3]) was determined as 82%.
As to `O=C(Oc1ccccc1)N1C[C@H]2CC34CCC1C2C31CCN(CC2CC2)C4Cc2ccc(O)cc21` (some centres unmarked) [Compound 195], the EC50 on opioid κ receptor was over 1 nM; on opioid δ receptor it was under 10 nM. The Emax on opioid κ receptor (read-out: κ Receptor Emax) stood at 27%; on opioid μ receptor (setting [8]) it was 5.6%; at opioid δ receptor, 92%.
Turning to `COc1ccc2c(c1)[C@]13CCN(CC4CC4)[C@H](C2)[C@]12CCC1C3[C@@H](CN1c1nc(C)cc(C)n1)C2` (stereo partly drawn) [Compound 222, (1S,5aS,6R,11bR)-14-(cyclopropylmethyl)-3-(4,6-dimethylpyrimidin-2-yl)-10-methoxy-2,3,3a,4,5,6,7,11c-octahydro-1H-6,11b-(iminoethano)-1,5a-methanonaphtho[1,2-e]indole], at opioid κ receptor (setting [7]), the Emax at 10 µM came out at 43%. Also, the EC50 at opioid μ receptor (hydrochloride was used) is over 100 nM; on opioid δ receptor (setting [2]), under 10 nM. For the same compound, the Emax came to 52% on opioid μ receptor (setting [1]) and 105% at opioid δ receptor (setting [3]).
As for `O=C(/C=C/c1ccccc1)N1C[C@H]2OC34CCC1C2C31CCN(CC2CC2)C4Cc2ccc(O)cc21` (stereo partly drawn) [Compound 57, (2E)-1-[(1S,3aR,5aS,6R,11bR,11cS)-14-(cyclopropylmethyl)-10-hydroxy-1,2,3a,4,5,6,7,11c-octahydro-3H-6,11b-(iminoethano)-1,5a-epoxynaphtho[1,2-e]indol-3-yl]-3-phenylpropenone], the Emax at 10 µM on opioid κ receptor (setting [7]) was 25%; at opioid μ receptor (setting [6]), 3%. Besides, the EC50 on opioid δ receptor (setting [2]) is under 10 nM. In addition, on opioid δ receptor (setting [3]), the Emax was found to be 63%.
Take `CC(C)N(Cc1ccccc1)C(=O)N1C[C@H]2C[C@@]34CCC1C2[C@@]31CCN(CC2CC2)[C@@H]4Cc2ccc(O)cc21` (stereo partly drawn) [Compound 155, (1S,5aS,6R,11bR)—N-benzyl-14-(cyclopropylmethyl)-10-hydroxy-N-isopropyl-3a,4,5,6,7,11c-hexahydro-1H-6,11b-(iminoethano)-1,5a-methanonaphtho[1,2-e]indole-3(2H)-carboxamide]: the results for the EC50 on opioid κ receptor (setting [4]) and at opioid δ receptor (setting [2]) were over 1 nM and under 1 nM, respectively. For the same compound, the Emax at opioid κ receptor (setting [5]) is 47%; at opioid δ receptor (setting [3]), 91%. Moreover, the Emax at 10 µM on opioid μ receptor (setting [6]) worked out at 3%.
`O=C(c1ccccc1)N1C[C@H]2O[C@@]34CC[C@@H]1[C@@H]2[C@@]31CCN(CC2CC2)[C@@H]4Cc2ccc(O)cc21` [Compound 10, [(1S,3aR,5aS,6R,11bR,11cS)-14-(cyclopropylmethyl)-10-hydroxy-1,2,3a,4,5,6,7,11c-octahydro-3H-6,11b-(iminoethano)-1,5a-epoxynaphtho[1,2-e]indol-3-yl](phenyl)methanone]: the values for the Emax on opioid κ receptor (read-out: κ Receptor responce rate at the maximum concentration (reference value)), at opioid μ receptor (setting [8]) and at opioid δ receptor (setting [3]) were 2.9%, 3.9% and 127%, respectively. The EC50 on opioid δ receptor (setting [2]) is under 1 nM.
As for `Oc1ccc2c(c1)[C@]13CCN(CC4CC4)[C@H](C2)[C@]12CCC1C3[C@@H](CN1c1ccccn1)C2` (stereo partly drawn) [Compound 221, (1S,5aS,6R,11bR)-14-(cyclopropylmethyl)-3-(pyridin-2-yl)-2,3,3a,4,5,6,7,11c-octahydro-1H-6,11b-(iminoethano)-1,5a-methanonaphtho[1,2-e]indol-10-ol], the EC50 at opioid κ receptor (setting [4]) is over 1 nM; on opioid μ receptor (hydrochloride was used), over 1 nM; on opioid δ receptor (setting [2]), under 1 nM. Also, the Emax on opioid κ receptor (setting [5]) came out at 42%; at opioid μ receptor (setting [1]), 30%; at opioid δ receptor (setting [3]), 90%.
Regarding `O=C(c1ccccc1)N1C[C@H]2O[C@@]34CC[C@@H]1[C@@H]2[C@@]31CCN(CC2CC2)[C@@H]4Cc2cccc(O)c21` [Compound 68, [(1S,3aR,5aS,6R,11bR,11cS)-14-(cyclopropylmethyl)-11-hydroxy-1,2,3a,4,5,6,7,11c-octahydro-3H-6,11b-(iminoethano)-1,5a-epoxynaphtho[1,2-e]indol-3-yl](phenyl)methanone], the EC50 is over 100 nM at opioid κ receptor (setting [4]), over 100 nM at opioid μ receptor (hydrochloride was used) and under 10 nM at opioid δ receptor (setting [2]). Besides, the Emax at opioid κ receptor (setting [5]) is 99%; on opioid μ receptor (setting [1]), 56%; on opioid δ receptor (setting [3]), 90%.
For `NC(=O)c1ccc2c(c1)[C@]13CCN(CC4CC4)[C@H](C2)[C@]12CCC1C3[C@@H](CN1C(=O)c1ccccc1)O2` (stereo partly drawn) [Compound 306, (1S,5aS,6R,11bR)-3-benzoyl-14-(cyclopropylmethyl)-2,3,3a,4,5,6,7,11c-octahydro-1H-6,11b-(iminoethano)-1,5a-epoxynaphtho[1,2-e]indole-10-carboxamide], the Emax at 10 µM at opioid κ receptor (setting [7]) came to 9.5%; at opioid μ receptor (setting [6]), 2.8%. At opioid δ receptor (setting [2]), the EC50 was under 10 nM. In addition, on opioid δ receptor (setting [3]), the Emax turned out to be 84%.
Regarding `Oc1ccc2c(c1)C13C(O)CN(CC4CC4)C(C2)C12CCC1C3[C@@H](CN1Cc1ccccc1)O2` (stereo partly drawn) [Compound 329, (1S,3aR,5aS,6R,11bS,11cS,12R)-3-Benzyl-14-(cyclopropylmethyl)-1,2,3a,4,5,6,7,11c-octahydro-1H-6,11b-(iminoethano)-1,5a-epoxynaphtho[1,2-e]indole-10,12-diol], the EC50 was over 10 nM on opioid κ receptor (setting [4]) and under 1 nM on opioid δ receptor (setting [2]). In addition, the results for the Emax on opioid κ receptor (setting [5]) and on opioid δ receptor (setting [3]) were 14% and 76%, respectively. For the same compound, the Emax at 10 µM at opioid μ receptor (setting [6]) worked out at 0.9%.
Taken in the same sequence, the figures for `Oc1ccc2c(c1)C13CCN(CC4CC4)C(C2)C12CCC1C3[C@@H](CN1c1nc(-c3ccccc3)cs1)C2` (some centres unmarked) [Compound 242] were over 10 nM, under 50 nM, 47%, 68% and 9.2%.

(Values after patent US8952030B2, “Morphinan derivative” (priority 2011, dated 2015).)
